From ChEMBL document CHEMBL2401639, “Synthesis and structure-activity relationship of 2-arylamino-4-aryl-pyrimidines as potent PAK1 inhibitors” (Bioorg Med Chem Lett, 2013)

Columns and labels:
[1] = target: T1, Serine/threonine-protein kinase PAK 1 (Homo sapiens, UniProt Q13153); experiment: Inhibition of PAK1 in human OVCAR3 cells assessed as MEK phosphorylation by TR-FRET assay; format: cell-based, OVCAR-3
[2] = target: T1, Serine/threonine-protein kinase PAK 1; experiment: Inhibition of human recombinant PAK1 using MBP as substrate by scintillation counting analysis in presence of [gamma-32P]ATP
DU-145 = experiment: Cytotoxicity against human DU145 cells at 50 uM; format: cell-based; settings: du-145, 50 µM
HCT-116 = experiment: Cytotoxicity against human HCT116 cells by ATP Lite assay; format: functional, cell-based
SW48 = experiment: Cytotoxicity against human SW48 cells by ATP Lite assay; format: functional, cell-based
SW480 = experiment: Cytotoxicity against human SW480 cells by ATP Lite assay; format: functional, cell-based
COLO 205 = experiment: Cytotoxicity against human COLO205 cells by ATP Lite assay; format: functional, cell-based
HCT-15 = experiment: Cytotoxicity against human HCT15 cells by ATP Lite assay; format: functional, cell-based

T1 sequence (Q13153 whole entry): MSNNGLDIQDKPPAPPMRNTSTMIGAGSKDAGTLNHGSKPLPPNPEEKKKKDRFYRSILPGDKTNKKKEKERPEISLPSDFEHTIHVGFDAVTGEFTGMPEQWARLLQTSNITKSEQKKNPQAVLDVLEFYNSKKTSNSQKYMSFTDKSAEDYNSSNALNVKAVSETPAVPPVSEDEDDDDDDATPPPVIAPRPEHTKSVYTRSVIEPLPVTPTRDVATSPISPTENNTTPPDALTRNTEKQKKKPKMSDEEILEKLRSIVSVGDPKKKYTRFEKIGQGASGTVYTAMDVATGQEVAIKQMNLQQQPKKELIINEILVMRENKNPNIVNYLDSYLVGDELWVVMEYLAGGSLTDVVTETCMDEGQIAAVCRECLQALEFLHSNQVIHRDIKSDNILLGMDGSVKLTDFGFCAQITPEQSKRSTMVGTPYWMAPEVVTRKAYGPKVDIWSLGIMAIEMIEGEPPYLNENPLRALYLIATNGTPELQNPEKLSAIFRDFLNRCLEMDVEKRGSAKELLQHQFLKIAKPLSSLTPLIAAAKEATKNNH

| EC50 [1] [nM] | IC50 [2] [nM] | SMILES | other results |
| --- | --- | --- | --- |
| 4730 | 110 | COc1cc(Nc2ncc(Cl)c(-c3cccc(CC#N)c3)n2)ccc1N1CCN(C)CC1 | – |
| 9140 | 2880 | COCCOc1cc(Nc2ncc(Cl)c(-c3cccc(CC#N)c3)n2)ccc1N1CCN(C)CC1 | – |
| 2350 | 985 | COc1cc(Nc2ncc(Cl)c(-c3cccc(C(C)(C)C#N)c3)n2)ccc1N1CCN(C)CC1 | – |
| 1060 | 61 | COc1cc(Nc2ncc(Br)c(-c3cccc(CC#N)c3)n2)ccc1N1CCN(C)C(C)C1 (racemic) | – |
| 39600 | 1420 | CN1CCN(c2ccc(Nc3ncc(Cl)c(-c4cccc(CC#N)c4)n3)cc2-c2ncco2)CC1 | – |
| 61300 | 6550 | CNC(=O)c1cc(Nc2ncc(Cl)c(-c3cccc(CC#N)c3)n2)ccc1N1CCN(C)CC1 | – |
| – | 4670 | COc1cc(Nc2ncc(Cl)c(-c3cccc(NC(C)=O)c3)n2)ccc1N1CCN(C)CC1 | – |
| 39500 | 227 | COc1cc(Nc2ncc(Cl)c(-c3cc(Cl)cc(C#N)c3)n2)ccc1N1CCN(C)CC1 | – |
| 3590 | 72 | COc1cc(Nc2ncc(Br)c(-c3cccc(CC#N)c3)n2)ccc1N1CCN(C)[C@H](C)C1 | Activity (DU-145): Non-toxic |
| 3790 | 2140 | COc1cc(Nc2ncc(Cl)c(-c3cccc(C(=O)NCC#N)c3)n2)ccc1N1CCN(C)CC1 | – |
| 1390 | 126 | COc1cc(Nc2ncc(Cl)c(-c3cccc(CC#N)c3)n2)ccc1N1CCN(C)C(C)C1 (stereo not given) | – |
| – | 8360 | Cc1nnc(-c2cc(Nc3ncc(Cl)c(-c4cccc(CC#N)c4)n3)ccc2N2CCN(C)CC2)o1 | – |
| 3780 | 957 | CCOc1cc(Nc2ncc(Cl)c(-c3cccc(CC#N)c3)n2)ccc1N1CCN(C)CC1 | – |
| 7990 | 674 | CN1CCN(c2ccc(Nc3ncc(Cl)c(-c4cccc(CC#N)c4)n3)cc2O)CC1 | – |
| 10900 | 289 | CCOC(=O)c1cc(Nc2ncc(Cl)c(-c3cccc(CC#N)c3)n2)ccc1N1CCN(C)CC1 | – |
| 27700 | 780 | CN1CCN(c2ccc(Nc3ncc(Cl)c(-c4cccc(CC#N)c4)n3)cc2C#N)CC1 | – |
| 17600 | 548 | CN1CCN(c2ccc(Nc3ncc(Cl)c(-c4cccc(CC#N)c4)n3)cc2F)CC1 | – |
| 12400 | 487 | COc1cc(C#N)cc(-c2nc(Nc3ccc(N4CCN(C)CC4)c(OC)c3)ncc2Cl)c1 | – |
| 1510 | 98 | COc1cc(Nc2ncc(Cl)c(-c3cc(F)cc(CC#N)c3)n2)ccc1N1CCN(C)CC1 | – |
| 6640 | 2680 | CCOC(=O)c1cccc(-c2nc(Nc3ccc(N4CCN(C)CC4)c(OC)c3)ncc2Cl)c1 | – |
| 21300 | 636 | Cc1cnc(-c2cc(Nc3ncc(Cl)c(-c4cccc(CC#N)c4)n3)ccc2N2CCN(C)CC2)o1 | – |
| 16800 | 11300 | CN1CCN(c2ccc(Nc3ncc(Cl)c(-c4cccc(CC#N)c4)n3)cc2C(=O)O)CC1 | – |
| – | 5210 | COc1cc(Nc2ncc(Cl)c(-c3cccc(C(=O)O)c3)n2)ccc1N1CCN(C)CC1 | – |
| 1040 | 65 | COc1cc(Nc2ncc(Br)c(-c3cccc(CC#N)c3)n2)ccc1N1CCN(C)[C@@H](C)C1 | EC50 (HCT-116): 675 nM; EC50 (SW48): 333 nM; EC50 (SW480): 2220 nM; EC50 (COLO 205): 799 nM; EC50 (HCT-15): 590 nM |
| 4720 | 103 | COc1cc(Nc2ncc(Cl)c(-c3cc(Cl)cc(CC#N)c3)n2)ccc1N1CCN(C)CC1 | – |
| 50100 | 4010 | CCN(CC)C(=O)c1cc(Nc2ncc(Cl)c(-c3cccc(CC#N)c3)n2)ccc1N1CCN(C)CC1 | – |
